Legend:
[1] = Loss of the active substance during expansion in the dry state (adhesion test); type: physicochemical
Excerpt: The active substance can, for example, be released in the form of particles and can then become effective by dissolution in the course of a longer period of time; • Low molecular weight: Substances with a molecular weight less than 5000 Da, and preferably <2000 Da, and particularly preferred <1000 Da; • Hydrophilic/hydrophilised balloon membrane: hydrophilic membranes consisting of materials which can be wetted with water or with hydrophilic solvents; hydrophilised membranes are membranes made out nylon, for example, whose surfaces were changed by subsequent treatment into a state that can be wetted with water or other hydrophilic solvents. • Hydrophilic or hydrophilised membranes are not to be confused with membranes which are provided with an additional hydrophilic layer; • Hydrophilically-coated balloon membrane: A membrane, which contains an additionally applied layer, which can itself be wetted with water; • Open on the surface: Pharmaceuticals or additives which are not incorporated into the balloon membrane or which are not incorporated into any layers that are firmly attached to the balloon membrane. For example, they are not incorporated in any polymeric water-insoluble coatings particularly any hydrogels that may not become detached. […] The balloons are expanded when dry and shaken for 5 seconds in a glass vessel. More than 75% of the dose remains on the balloon; • Highly volatile: Solvents with a boiling point below 300° C., and preferably below 160° C., with below 100° C. being particularly preferred.
Each balloon was coated in the folded state with 3 to 4 μg/mm^2 paclitaxel and was tested for loss of the active substance during expansion in the dry state as defined under ‘Definitions’.

[2] = Coating of hydrophilic and non-hydrophilic balloon catheters with paclitaxel by immersion: paclitaxel content on balloon; type: physicochemical; conditions: 4 immersions, 30 mg paclitaxel/ml
Protocol: Coating solution: 30 mg paclitaxel/ml in acetone 89%, ethanol 9%, Ultravist®-370 (Schering AG, Berlin) 2%, by immersing it 4 times and allowing it to dry between each immersion: […]

[3] = Coating of balloon catheters with methotrexate: content of active substance; type: physicochemical; conditions: balloons 3.5 to 19 mm; 2×16 μl coating plus additional coat with Ultravist-370 + HES + methotrexate
Protocol: 30 mg methotrexic acid+100 μl sodium bicarbonate (7.5%)+900 μl methanol (coating with 2×16 μl, corresponding to ˜4 μg/mm^2 balloon surface)
Additional coat: Ultravist®-370+hydroxyethyl starch (HES) 10% (1:1 by volume)+30 mg methotrexate/ml applied by immersing for a short time
Stents: stainless steel, balloon-expandable 3.5 to 18 mm
Content of active substance: 5.3 μg/mm^2 balloon surface

[4] = test system: overstretched coronary arteries in pigs; test: Efficacy and tolerance of coated balloon catheters with stent implantation, quantitative angiography after 4 weeks; type: in vivo; conditions: pig coronary artery, n = 8; for Late lumen loss: within 4 weeks
Excerpt: The efficacy and tolerance of coated balloon catheters according to example 5 in overstretched coronary arteries in pigs
Method: Scheller B, Speck U, Abramjuk C, Bernhardt U, Böhm M, Nickenig G: Paclitaxel balloon coating—a novel method for prevention and therapy of restenosis. Circulation 2004; 110: 810-4
Stents were implanted into pigs with the help of methotrexate coated or uncoated (control) balloon catheters. After 4 weeks the extent of the constriction of the lumen in the area of the stent was measured using quantitative angiography.
The late lumen loss means the amount by which the original coronary artery lumen diameter decreases due to excessive cell growth within 4 weeks. With blood flowing through them the original coronary artery lumen diameters were 2.64 mm and 2.41 mm respectively. In the control group (no methotrexate) the late lumen loss was 1.1 mm and in the group treated with methotrexate the late lumen loss was 0.67 mm.

Compound | loss of the active substance during expansion in the dry state ([1]; series 1, coating solvent Acetic acid) [%] | loss of the active substance during expansion in the dry state ([1]; series 1, coating solvent Acetone, 3 to 4 μg/mm^2, folded) [%] | loss of the active substance during expansion in the dry state ([1]; series 1, coating solvent Dimethylformamide) [%] | loss of the active substance during expansion in the dry state ([1]; series 1, coating solvent Dimethylsulfoxide) [%] | loss of the active substance during expansion in the dry state ([1]; series 1, coating solvent Dioxane) [%] | loss of the active substance during expansion in the dry state ([1]; series 1, coating solvent Isopropanol) [%] | loss of the active substance during expansion in the dry state ([1]; series 1, coating solvent Tetrahydrofuran) [%] | loss of the active substance during expansion in the dry state ([1]; series 2, Tetrahydrofuran with 10% water by volume) [%] | loss of the active substance during expansion in the dry state ([1]; series 2, Tetrahydrofuran with 20% water by volume) [%] | loss of the active substance during expansion in the dry state ([1]; series 2, Tetrahydrofuran with 37% water by volume) [%] | loss of the active substance during expansion in the dry state ([1]; series 2, coating solvent Tetrahydrofuran) [%] | μg paclitaxel/mm^2 balloon surface ([2]; hydrophilic catheter, 3.5 to 15 mm, 5 balloon catheters) [μg/mm^2] | μg paclitaxel/mm^2 balloon surface ([2]; hydrophilic catheter, 3.5 to 20 mm, 8 balloon catheters) [μg/mm^2] | μg paclitaxel/mm^2 balloon surface ([2]; standard catheter, 3.5 to 15 mm, 5 balloon catheters) [μg/mm^2] | μg paclitaxel/mm^2 balloon surface ([2]; standard catheter, 3.5 to 20 mm, 8 balloon catheters) [μg/mm^2] | Content of active substance [3] [μg/mm^2 balloon surface] | Minimum vessel diameter 28d ([4]; 28 d) [mm] | Late lumen loss [4] [mm] | Late lumen loss ([4]; listed as methotrexate) [mm]
CC(=O)O[C@H]1C(=O)[C@@]2(C)[C@H]([C@H](OC(=O)c3ccccc3)[C@]3(O)C[C@H](OC(=O)[C@H](O)[C@@H](NC(=O)c4ccccc4)c4ccccc4)C(C)=C1C3(C)C)[C@]1(OC(C)=O)CO[C@@H]1C[C@@H]2O [paclitaxel] | 4 | 21 | 24 | 66 | 12 | 19 | 4 | 3 | 16 | 37 | 3 | 2.8 | 5.6 | 3.4 | 5.0 | – | – | – | –
CN(Cc1cnc2nc(N)nc(N)c2n1)c1ccc(C(=O)N[C@@H](CCC(=O)O)C(=O)O)cc1 [Methotrexate, methotrexate] | – | – | – | – | – | – | – | – | – | – | – | – | – | – | – | 5.3 | 1.74 ± 0.41 | 0.67 ± 0.39 | 0.67

— patent US9974931B2, “Pharmaceutical-coated medical products, the production thereof and the use thereof” (Invatec Technology Center Gmbh, priority 2007, dated 2018)
